# Experiments:
# Test in all cases: relative viability (nuclei count vs DMSO), 5 days (fraction); higher = more cells survive
# IA-LM = test system: IA-LM
# Summary of the method: (§1)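 Relative viability is defined as nuclei in treated wells over nuclei in vehicle wells. Duplicate plates were run and medians reported. Lung cancer cell lines in 1536-well plates were dosed by pin tool one day after seeding, with one drug or with a fixed anchor-drug dose plus five library-drug doses (not always all listed) in √10 steps, and nuclei were counted after 5 days.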
# A549 = test system: A549
# Summary of the method: as §1
# EKVX = test system: EKVX
# Summary of the method: as §1
# HCC-44 = test system: HCC-44
# Summary of the method: as §1
# ABC-1 = test system: ABC-1
# Summary of the method: as §1
# NCI-H1703 = test system: NCI-H1703
# Summary of the method: as §1
# NCI-H2085 = test system: NCI-H2085
# Summary of the method: as §1
# NCI-H1993 = test system: NCI-H1993
# Summary of the method: as §1
# NCI-H2126 = test system: NCI-H2126
# Summary of the method: as §1
# Calu-6 = test system: Calu-6
# Summary of the method: as §1
# RERF-LC-KJ = test system: RERF-LC-KJ
# Summary of the method: as §1
# NCI-H1299 = test system: NCI-H1299
# Summary of the method: as §1
# EBC-1 = test system: EBC-1
# Summary of the method: as §1
smiles,measurement,setting,value
O=c1cc(-c2cccc3c2Sc2ccccc2S3)oc(N2CCOCC2)c1 + CS(=O)(=O)CCNCc1ccc(-c2ccc3ncnc(Nc4ccc(OCc5cccc(F)c5)c(Cl)c4)c3c2)o1 [Lapatinib] (partner 2 µM),relative viability,IA-LM; first compound 0.08 µM,1.16
same,relative viability,IA-LM; first compound 0.253 µM,0.806
same,relative viability,IA-LM; first compound 0.8 µM,0.693
same,relative viability,IA-LM; first compound 8 µM,1.2
same,relative viability,A549; first compound 0.08 µM,1.04
same,relative viability,A549; first compound 0.253 µM,1.23
same,relative viability,A549; first compound 0.8 µM,1.19
same,relative viability,A549; first compound 2.53 µM,0.87
same,relative viability,A549; first compound 8 µM,0.995
same,relative viability,EKVX; first compound 0.08 µM,0.226
same,relative viability,EKVX; first compound 0.253 µM,0.186
same,relative viability,EKVX; first compound 0.8 µM,0.166
same,relative viability,EKVX; first compound 2.53 µM,0.186
same,relative viability,EKVX; first compound 8 µM,0.202
same,relative viability,HCC-44; first compound 0.08 µM,1.05
same,relative viability,HCC-44; first compound 0.253 µM,1.21
same,relative viability,HCC-44; first compound 0.8 µM,0.977
same,relative viability,HCC-44; first compound 2.53 µM,0.928
same,relative viability,HCC-44; first compound 8 µM,1.14
same,relative viability,ABC-1; first compound 0.08 µM,1.04
same,relative viability,ABC-1; first compound 0.253 µM,1.2
same,relative viability,ABC-1; first compound 0.8 µM,1.28
same,relative viability,ABC-1; first compound 2.53 µM,0.991
same,relative viability,ABC-1; first compound 8 µM,1.41
same,relative viability,NCI-H1703; first compound 0.08 µM,0.886
same,relative viability,NCI-H1703; first compound 0.253 µM,1.45
same,relative viability,NCI-H1703; first compound 0.8 µM,0.94
same,relative viability,NCI-H1703; first compound 2.53 µM,1.1
same,relative viability,NCI-H1703; first compound 8 µM,0.971
same,relative viability,NCI-H2085; first compound 0.08 µM,0.636
same,relative viability,NCI-H2085; first compound 0.253 µM,0.86
same,relative viability,NCI-H2085; first compound 0.8 µM,0.767
same,relative viability,NCI-H2085; first compound 2.53 µM,0.703
same,relative viability,NCI-H2085; first compound 8 µM,0.644
same,relative viability,NCI-H1993; first compound 0.08 µM,0.773
same,relative viability,NCI-H1993; first compound 0.253 µM,0.802
same,relative viability,NCI-H1993; first compound 0.8 µM,0.849
same,relative viability,NCI-H1993; first compound 2.53 µM,0.875
same,relative viability,NCI-H1993; first compound 8 µM,0.844
same,relative viability,NCI-H2126; first compound 0.08 µM,0.715
same,relative viability,NCI-H2126; first compound 0.253 µM,0.801
same,relative viability,NCI-H2126; first compound 0.8 µM,0.679
same,relative viability,NCI-H2126; first compound 2.53 µM,0.679
same,relative viability,NCI-H2126; first compound 8 µM,0.796
same,relative viability,Calu-6; first compound 0.08 µM,1.16
same,relative viability,Calu-6; first compound 0.253 µM,1.16
same,relative viability,Calu-6; first compound 0.8 µM,1.03
same,relative viability,Calu-6; first compound 2.53 µM,1.07
same,relative viability,Calu-6; first compound 8 µM,1.15
same,relative viability,RERF-LC-KJ; first compound 0.08 µM,0.836
same,relative viability,RERF-LC-KJ; first compound 0.253 µM,0.998
same,relative viability,RERF-LC-KJ; first compound 0.8 µM,0.876
same,relative viability,RERF-LC-KJ; first compound 2.53 µM,0.907
same,relative viability,RERF-LC-KJ; first compound 8 µM,0.98
same,relative viability,NCI-H1299; first compound 0.08 µM,0.972
same,relative viability,NCI-H1299; first compound 0.253 µM,1
same,relative viability,NCI-H1299; first compound 0.8 µM,0.997
same,relative viability,NCI-H1299; first compound 2.53 µM,0.975
same,relative viability,NCI-H1299; first compound 8 µM,0.96
same,relative viability,EBC-1; first compound 0.08 µM,0.201
same,relative viability,EBC-1; first compound 0.253 µM,0.191
same,relative viability,EBC-1; first compound 0.8 µM,0.196
same,relative viability,EBC-1; first compound 2.53 µM,0.204
same,relative viability,EBC-1; first compound 8 µM,0.202
O=c1cc(N2CCOCC2)oc2c(-c3cccc4c3sc3ccccc34)cccc12 + CS(=O)(=O)N1CCN(Cc2cc3nc(-c4cccc5[nH]ncc45)nc(N4CCOCC4)c3s2)CC1 [Pictilisib] (partner 1 µM),relative viability,IA-LM; first compound 0.01 µM,0.304
same,relative viability,IA-LM; first compound 0.03162 µM,0.34
same,relative viability,IA-LM; first compound 0.1 µM,0.271
same,relative viability,IA-LM; first compound 0.3162 µM,0.357
same,relative viability,IA-LM; first compound 1 µM,0.337
same,relative viability,A549; first compound 0.01 µM,0.582
same,relative viability,A549; first compound 0.03162 µM,0.526
same,relative viability,A549; first compound 0.1 µM,0.601
same,relative viability,A549; first compound 0.3162 µM,0.516
same,relative viability,A549; first compound 1 µM,0.599
same,relative viability,EKVX; first compound 0.01 µM,0.418
same,relative viability,EKVX; first compound 0.03162 µM,0.496
same,relative viability,EKVX; first compound 0.1 µM,0.507
same,relative viability,EKVX; first compound 0.3162 µM,0.439
same,relative viability,EKVX; first compound 1 µM,0.431
same,relative viability,HCC-44; first compound 0.01 µM,0.638
same,relative viability,HCC-44; first compound 0.03162 µM,0.659
same,relative viability,HCC-44; first compound 0.1 µM,1.87
same,relative viability,HCC-44; first compound 0.3162 µM,0.543
same,relative viability,HCC-44; first compound 1 µM,0.549
same,relative viability,ABC-1; first compound 0.01 µM,0.698
same,relative viability,ABC-1; first compound 0.03162 µM,0.834
same,relative viability,ABC-1; first compound 0.1 µM,0.745
same,relative viability,ABC-1; first compound 0.3162 µM,0.888
same,relative viability,ABC-1; first compound 1 µM,0.755
same,relative viability,NCI-H1703; first compound 0.01 µM,0.245
same,relative viability,NCI-H1703; first compound 0.03162 µM,0.221
same,relative viability,NCI-H1703; first compound 0.1 µM,0.223
same,relative viability,NCI-H1703; first compound 0.3162 µM,0.253
same,relative viability,NCI-H1703; first compound 1 µM,0.252
same,relative viability,NCI-H2085; first compound 0.01 µM,0.469
same,relative viability,NCI-H2085; first compound 0.03162 µM,0.467
same,relative viability,NCI-H2085; first compound 0.1 µM,0.553
same,relative viability,NCI-H2085; first compound 0.3162 µM,0.464
same,relative viability,NCI-H2085; first compound 1 µM,0.405
same,relative viability,NCI-H1993; first compound 0.01 µM,0.937
same,relative viability,NCI-H1993; first compound 0.03162 µM,0.945
same,relative viability,NCI-H1993; first compound 0.1 µM,0.812
same,relative viability,NCI-H1993; first compound 0.3162 µM,0.759
same,relative viability,NCI-H1993; first compound 1 µM,0.799
same,relative viability,NCI-H2126; first compound 0.01 µM,0.471
same,relative viability,NCI-H2126; first compound 0.03162 µM,0.449
same,relative viability,NCI-H2126; first compound 0.1 µM,0.529
same,relative viability,NCI-H2126; first compound 0.3162 µM,0.517
same,relative viability,NCI-H2126; first compound 1 µM,0.479
same,relative viability,Calu-6; first compound 0.01 µM,0.879
same,relative viability,Calu-6; first compound 0.03162 µM,0.917
same,relative viability,Calu-6; first compound 0.1 µM,1.06
same,relative viability,Calu-6; first compound 0.3162 µM,0.9
same,relative viability,Calu-6; first compound 1 µM,1.04
same,relative viability,RERF-LC-KJ; first compound 0.01 µM,0.509
same,relative viability,RERF-LC-KJ; first compound 0.03162 µM,0.507
same,relative viability,RERF-LC-KJ; first compound 0.1 µM,0.595
same,relative viability,RERF-LC-KJ; first compound 0.3162 µM,0.664
same,relative viability,RERF-LC-KJ; first compound 1 µM,0.514
same,relative viability,NCI-H1299; first compound 0.01 µM,0.922
same,relative viability,NCI-H1299; first compound 0.03162 µM,0.688
same,relative viability,NCI-H1299; first compound 0.1 µM,0.897
same,relative viability,NCI-H1299; first compound 0.3162 µM,0.816
same,relative viability,NCI-H1299; first compound 1 µM,0.801
same,relative viability,EBC-1; first compound 0.01 µM,0.409
same,relative viability,EBC-1; first compound 0.03162 µM,0.35
same,relative viability,EBC-1; first compound 0.1 µM,0.338
same,relative viability,EBC-1; first compound 0.3162 µM,0.378
same,relative viability,EBC-1; first compound 1 µM,0.371

# — the supplement of paper PMC10307832
